The test system of one data set is Typhlodromus pyri. Nature of the data set: LR50; higher = less toxic. The conditions noted are these: not reported; mortality.
The next data set relates to Aphidius rhopalosiphi. Put plainly: LR50; higher = less toxic. The conditions noted are these: not reported; mortality.
The test system of a further data set is Canidae. The conditions noted are these: chronic; duration: 1 years; oral; Dog Other; body weight.
For another data set, the system named is Anas platyrhynchos. The conditions noted are these: oral, mortality.
The next data set concerns Apis mellifera. Conditions: acute; duration: 48 hours; oral; unspecified; mortality.
A further data set has as its system Oryctolagus sp. Conditions: developmental; development.
A further data set deals with Pimephales promelas. The conditions noted are these: chronic/long-term; duration: 21 days.
Another data set concerns Lepomis macrochirus. The conditions noted are these: acute; duration: 96 hours; mortality.
A further data set has as its system Plant. Conditions: chronic/long-term; seedling emergence.
The subject of a further data set is Colinus virginianus. Conditions: mortality.
The subject of the next data set is Daphnia magna. Conditions: chronic/long-term; duration: 21 days; reproduction.

Converted amounts (≈) assume the structure as drawn. Bounds are passed on as bounds.

As for `O=c1c2cc(F)ccc2nc(-n2cncn2)n1-c1ccc(Cl)cc1Cl` [Fluquinconazole], the LR50 in the data set with Typhlodromus pyri and in the data set with Aphidius rhopalosiphi was less than 149 g/ha throughout. For the same compound, the no observed adverse effect level (NOAEL) in the data set with Canidae amounted to 0.2 mg/kg-day; in the data set with Oryctolagus sp., 2 mg/kg-day; in the data set on Rattus norvegicus (chronic, mortality) it was 0.9 mg/kg-day; with Rattus norvegicus (developmental, development), 2 mg/kg-day. The LD50 in the data set on Anas platyrhynchos (acute, unspecified) was more than 2000 mg/kg-day; in the data set on Apis mellifera it was more than 100 µg/piece; with Rattus norvegicus (acute, oral, mortality) it was 112 mg/kg-day; in the data set on Colinus virginianus (acute, oral) it was more than 2000 mg/kg-day. The LC50 in the data set on Anas platyrhynchos (short-term, feed) is more than 210 mg/kg-day; with Tagia sp. (acute, duration: 14 days, mortality), more than 1000 mg/kg; in the data set with Lepomis macrochirus, 1.34 µg/mL (≈ 3.56 µM); in the data set on Colinus virginianus (acute, oral, diet), 704 mg/kg-day. In addition, the NOEC with Tagia sp. (chronic/long-term, duration: 56 days) is 0.5 mg/kg; with Pimephales promelas it was 0.154 mg/L; in the data set with Plant, more than 1000 g/ha; in the data set with Colinus virginianus (reproduction developmental) it was 1.9 mg/kg-day; in the data set on Daphnia magna it was 0.648 mg/L.

The NOAEL is the highest dose or exposure tested at which no adverse effect was seen.
